In patent publication US20160223525A1, “METHOD OF SCREENING FOR COMPOUNDS USEFUL IN THE TREATMENT OF ALZHEIMER DISEASE” (INNOVATIVE CONCEPTS IN DRUG DEVELOPMENT, priority 2013, published 2016):

What was measured:
[1] = system: Patient-derived fibroblasts (AD patient, affected cells); assay: Reversal of the AD-signature (mitochondrial behaviour variables V3, V5, V7, V11, V19) by dynamic imaging of MitoTracker green-labelled live cells; type: cell-based, human; conditions: for overall rescue of the diseased (AD) phenotype, weighted by discriminant equation: 30 min incubation, healthy control=100%, AD control=0%; for overall rescue / reversal of the AD-signature, dose-response: across tested doses (0.05/0.1 to 10 μM)
Experimental: Fibroblasts were labelled with MitoTracker green, a cell-permeant mitochondrial dye not sensitive to mitochondrial membrane potential, for 30 minutes. Images were recorded from an epifluorescence microscope continuously for 6 minutes. Cells were kept at 37° C. for the duration of the image capture. For each experimental condition, 3 to 15 cells were recorded per well from three independent plates, i.e. up to 6000 individual mitochondria. The maximum duration for data acquisition was 30 minutes (i.e. five cells observed during 6 min). Images were captured with a Zeiss Axioplan II microscope along three dimensions in space and in time.
Patient-derived fibroblasts were cultured in DMEM containing 15% fetal calf serum and 0.5% DMSO, a concentration known to be inert on the mitochondrial behaviour.
[…] These concentrations are consistent with circulating levels of most drugable small molecules. They are within the range of doses centered on cMax when PK/PD (Pharmacokinetic/Pharmacodynamic) studies are available.
The negative control consists in affected cells treated with the vehicle only (DMSO), the positive control consists in healthy cells treated with the vehicle only (DMSO).
Reference compounds were tested on affected cells and compared to the 2 controls.
All raw data were expressed as a percent of control values (Healthy control=100%, AD control=0%).
Data analysis of the signature variables was particularly tuned to identify bifurcation in the logic of the descriptor measured. These bifurcations and the type of adaptation put in place by the mitochondrial reticular network give us significant insights on how the cell adapts to the test element. Impact of the disease on each individual variable was analyzed through a classical linear analysis with an analysis of variance (ANOVAs). Significant differences between groups are sought through a Bonferroni post-hoc analysis.

[2] = cited from earlier work
[3] = across tested doses (0.1, 1, 10 μM)
[4] = across tested doses (0.1, 1, 10 μM; imatinib also 0.05 μM)

SMILES	overall rescue of the diseased (AD) phenotype, weighted by discriminant equation ([1]; 1 μM)	overall rescue of the diseased (AD) phenotype, weighted by discriminant equation ([1]; 10 μM)	V5 (average cell area or dispersion descriptor of the areas of cells), % of phenotypic rescue ([1]; 1 and 10 μM)	overall rescue / reversal of the AD-signature, dose-response [1]	V7 (total area of regions containing entwined mitochondria to the total cell area), % of phenotypic rescue [1, 3]	V19 (frequency of mitochondria displaying an area between 2.6 and 3.1 μm^2), % of phenotypic rescue [1, 3]	V3 (dispersion descriptor of the moving speeds of mitochondria), % of phenotypic rescue [1, 4]	V11 (cell area covered with mitochondria), % of phenotypic rescue [1, 4]	V3 (dispersion descriptor of the moving speeds of mitochondria), % of phenotypic rescue ([1]; 0.05 μM)	V5 (average cell area or dispersion descriptor of the areas of cells), % of phenotypic rescue ([1]; 0.05 μM)	V7 (total area of regions containing entwined mitochondria to the total cell area), % of phenotypic rescue ([1]; 0.05 μM)	V11 (cell area covered with mitochondria), % of phenotypic rescue ([1]; 0.05 μM)	V19 (frequency of mitochondria displaying an area between 2.6 and 3.1 μm^2), % of phenotypic rescue ([1]; 0.05 μM)	overall rescue of the diseased (AD) phenotype, weighted by discriminant equation ([1]; 0.05 μM) [%]	overall rescue of the diseased (AD) phenotype ([1]; doses lower than 0.05 μM (not shown))	bioavailability [2]	overall rescue of the diseased (AD) phenotype, weighted by discriminant equation ([1]; 0.1 μM)	V5 (average cell area or dispersion descriptor of the areas of cells), % of phenotypic rescue [1, 3]
CC(=O)[C@H]1CC[C@H]2[C@@H]3CC[C@H]4C[C@H](O)CC[C@]4(C)[C@H]3CC[C@]12C [Allopregnanolone]	36%	provided a dose-dependent rescue	rescue was obtained	ability to reverse the AD-signature in a dose-dependent manner	detrimental at the lowest tested dose and tended to improve with increasing concentration of the drug but not to a level where the disease phenotype was reversed	no effect	rescue was obtained at all tested doses	detrimental at the lowest tested dose and tended to improve with increasing concentration of the drug but not to a level where the disease phenotype was reversed										
Cc1ccc(NC(=O)c2ccc(CN3CCN(C)CC3)cc2)cc1Nc1nccc(-c2cccnc2)n1 [Imatinib]							tended to improve with increasing doses	worsened	not affected	level comparable to that of healthy subject-derived cells	level comparable to that of healthy subject-derived cells	not affected	level comparable to that of healthy subject-derived cells	54	no effect			
Oc1ccc(C=Cc2cc(O)cc(O)c2)cc1 [Resveratrol]	did not provide rescue to the AD phenotype but a detrimental effect with worsening of the diseased status	63%		ability to reverse the AD-signature in a dose-dependent manner	seesaw effects	greatly worsened the disease-phenotype	efficient in reversing the disease phenotype	greatly worsened the disease-phenotype								poor bioavailability	did not provide rescue to the AD phenotype but a detrimental effect with worsening of the diseased status	seesaw effects
